Consider 54 compounds from patent US8003649B2 (AstraZeneca AB, priority 2007, dated 2011).

A value given as a limit tells only on which side of the number the result lay.

This test concerns the target T1, Androgen Receptor (AR) (Homo sapiens, UniProt P10275, T878A).
T1 construct: cell based immuno-fluorescence assay using the LNCaP prostate epithelial cell line; endogenous in cells; host or cells: LNCaP clone FGC (ATCC CRL-1740)
T1 sequence (P10275 1-920 T878A): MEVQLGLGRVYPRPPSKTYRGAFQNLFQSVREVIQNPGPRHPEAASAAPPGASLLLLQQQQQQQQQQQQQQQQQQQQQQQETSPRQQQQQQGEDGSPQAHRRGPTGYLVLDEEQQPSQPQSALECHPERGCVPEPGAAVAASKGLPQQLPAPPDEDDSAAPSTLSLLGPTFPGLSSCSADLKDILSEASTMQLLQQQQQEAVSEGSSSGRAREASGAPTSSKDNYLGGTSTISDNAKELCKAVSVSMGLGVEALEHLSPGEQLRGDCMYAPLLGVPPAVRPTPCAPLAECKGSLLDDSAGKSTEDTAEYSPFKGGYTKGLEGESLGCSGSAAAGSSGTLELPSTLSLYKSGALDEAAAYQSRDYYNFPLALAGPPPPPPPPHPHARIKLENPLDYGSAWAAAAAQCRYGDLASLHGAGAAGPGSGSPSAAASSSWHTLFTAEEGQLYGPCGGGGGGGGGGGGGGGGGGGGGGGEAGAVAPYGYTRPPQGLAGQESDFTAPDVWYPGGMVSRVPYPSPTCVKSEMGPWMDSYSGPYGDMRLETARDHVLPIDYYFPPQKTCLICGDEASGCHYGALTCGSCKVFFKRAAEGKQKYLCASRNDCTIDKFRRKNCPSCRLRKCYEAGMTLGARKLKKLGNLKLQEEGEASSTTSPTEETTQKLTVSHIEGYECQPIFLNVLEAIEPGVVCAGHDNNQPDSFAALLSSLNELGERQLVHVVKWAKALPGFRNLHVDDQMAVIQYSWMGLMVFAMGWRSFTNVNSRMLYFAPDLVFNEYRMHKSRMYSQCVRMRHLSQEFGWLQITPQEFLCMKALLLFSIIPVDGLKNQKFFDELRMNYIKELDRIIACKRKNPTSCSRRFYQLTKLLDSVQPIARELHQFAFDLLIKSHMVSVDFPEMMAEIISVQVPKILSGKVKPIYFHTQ
In words: LNCaP Androgen Receptor Down-regulation Cell Assay (immunofluorescence end point). The class given is cell-based. The following applies: LNCaP prostate carcinoma cells, compound incubation 20-22 hours, 50% reduction of the AR signal; read-out: Androgen Receptor Down-regulation Assay (a) IC50/μM. In short, it runs like this: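 LNCaP cells in medium with 5% charcoal-stripped FBS were plated overnight, then treated with a compound dilution series for 20-22 h at 37° C. After fixation, permeabilisation and immunostaining, AR-associated green fluorescence was quantified by laser-scanning microplate cytometry; AR down-regulation expressed as IC50 from fitted dose-response curves.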
For the compound `CN(Cc1cccnc1)C1CCN(c2ccc3nnc(C(F)(F)F)n3n2)CC1` [Example 406, N-methyl-N-(pyridin-3-ylmethyl)-1-[3-(trifluoromethyl)[1,2,4]triazolo[4,3-b]pyridazin-6-yl]piperidin-4-amine], the DC50 is 6.3 µM. For `CN(Cc1ccc(F)cc1)C1CCN(c2ccc3nnc(C(F)(F)F)n3n2)CC1` [Example 407] the value was 5.7 µM.

For the compound `CN(Cc1ccc(F)c(F)c1)C1CCN(c2ccc3nnc(C(F)(F)F)n3n2)CC1` [Example 408], the DC50 is 1.7 µM. For `CN(Cc1ccc(C#N)cc1)C1CCN(c2ccc3nnc(C(F)(F)F)n3n2)CC1` [Example 409] the value was 3.9 µM; for `CN(Cc1cc(F)cc(F)c1)C1CCN(c2ccc3nnc(C(F)(F)F)n3n2)CC1` [Example 410], 2.1 µM; for `CN(Cc1ccc(F)c(C#N)c1)C1CCN(c2ccc3nnc(C(F)(F)F)n3n2)CC1` [Example 411], 2.2 µM.

With `CN(CCO)C(=O)c1ccc(OC2CCN(c3ccc4nnc(C(F)(F)F)n4n3)CC2)cc1` [Example 412, N-(2-hydroxyethyl)-N-methyl-4-[[1-[3-(trifluoromethyl)-[1,2,4]triazolo[4,3-b]pyridazin-6-yl]piperidin-4-yl]oxy]benzamide], the DC50 came out at 9.1 µM.

Take `O=C(NCCN1CCCC1)c1ccc(OC2CCN(c3ccc4nnc(C(F)(F)F)n4n3)CC2)cc1` [Example 413]: the DC50 is 1.9 µM.

Consider `CN1CCN(C(=O)c2ccc(OC3CCN(c4ccc5nnc(C(F)(F)F)n5n4)CC3)cc2)CC1` [Example 414], for which the DC50 is > 10 µM.

On to `COCCNC(=O)c1ccc(OC2CCN(c3ccc4nnc(C(F)(F)F)n4n3)CC2)cc1` [Example 416], for which the DC50 was 2.7 µM.

On to `CN(C)C(=O)c1ccc(OC2CCN(c3ccc4nnc(C(F)(F)F)n4n3)CC2)cc1` [Example 417], for which the DC50 stood at 4.6 µM.

Take `O=C(c1ccc(OC2CCN(c3ccc4nnc(C(F)(F)F)n4n3)CC2)cc1)N1CC[C@@H](O)C1` [Example 418]: the DC50 is > 14 µM. The same measure for `O=C(c1ccc(OC2CCN(c3ccc4nnc(C(F)(F)F)n4n3)CC2)cc1)N1CCOCC1` [Example 420]: 5.9 µM; for `O=C(NCCN1CCOCC1)c1ccc(OC2CCN(c3ccc4nnc(C(F)(F)F)n4n3)CC2)cc1` [Example 424]: 2.2 µM. Take `COCCN(C)C(=O)c1ccc(OC2CCN(c3ccc4nnc(C(F)(F)F)n4n3)CC2)cc1` [Example 425]: the DC50 stood at 3.6 µM. For `CN1CCC(NC(=O)c2ccc(OC3CCN(c4ccc5nnc(C(F)(F)F)n5n4)CC3)cc2)CC1` [Example 427] the value was 4.3 µM; for `CN(C)CCNC(=O)c1ccc(OC2CCN(c3ccc4nnc(C(F)(F)F)n4n3)CC2)cc1` [Example 429], 2.6 µM. As for `CN(C)CCCOc1ccc(OC2CCN(c3ccc4nnc(C(F)(F)F)n4n3)CC2)cc1` [Example 430, N,N-dimethyl-3-[4-[[1-[3-(trifluoromethyl)-[1,2,4]triazolo[4,3-b]pyridazin-6-yl]piperidin-4-yl]oxy]phenoxy]propan-1-amine], the DC50 came out at 1.7 µM. For `FC(F)(F)c1nnc2ccc(N3CCC(Oc4ccc(OCCN5CCCC5)cc4)CC3)nn12` [Example 431] the value was 1.5 µM. For `FC(F)(F)c1nnc2ccc(N3CCC(Oc4ccc(OCCCN5CCNCC5)cc4)CC3)nn12` [Example 433] the value was 0.9 µM. For `CN(C)CCOc1ccc(OC2CCN(c3ccc4nnc(C(F)(F)F)n4n3)CC2)cc1` [Example 435] the value was 0.98 µM.

Regarding `CN1CCC(Oc2ccc(OC3CCN(c4ccc5nnc(C(F)(F)F)n5n4)CC3)cc2)CC1` [Example 436], the DC50 worked out at 0.75 µM. The same measure for `CN1CCN(CCCOc2ccc(OC3CCN(c4ccc5nnc(C(F)(F)F)n5n4)CC3)cc2)CC1` [Example 437]: 0.53 µM; for `FC(F)(F)c1nnc2ccc(N3CCC(Oc4ccc(OCc5ccon5)cc4)CC3)nn12` [Example 438]: 1.6 µM.

Take `FC(F)(F)c1nnc2ccc(N3CCC(Oc4ccc(OCc5cnco5)cc4)CC3)nn12` [Example 439]: the DC50 was found to be 0.48 µM. The same measure for `CN1CCN(CCOc2ccc(OC3CCN(c4ccc5nnc(C(F)(F)F)n5n4)CC3)cc2)CC1` [Example 440]: 2.3 µM; for `Cn1nccc1CCOc1ccc(OC2CCN(c3ccc4nnc(C(F)(F)F)n4n3)CC2)cc1` [Example 441]: 0.22 µM. The same measure for `Cn1nccc1COc1ccc(OC2CCN(c3ccc4nnc(C(F)(F)F)n4n3)CC2)cc1` [Example 442]: 0.44 µM. The same measure for `CN(C)CCCOc1cccc(OC2CCN(c3ccc4nnc(C(F)(F)F)n4n3)CC2)c1` [Example 443]: 1.5 µM; for `FC(F)(F)c1nnc2ccc(N3CCC(Oc4cccc(OCCCN5CCNCC5)c4)CC3)nn12` [Example 445]: 1.6 µM; for `Cc1cc(COc2cccc(OC3CCN(c4ccc5nnc(C(F)(F)F)n5n4)CC3)c2)no1` [Example 446]: 0.7 µM.

Consider `N#Cc1ccc(OC2CCN(c3ccc4nnc(C(F)(F)F)n4n3)CC2)cn1` [Example 448, 5-[[1-[3-(trifluoromethyl)-[1,2,4]triazolo[4,3-b]pyridazin-6-yl]piperidin-4-yl]oxy]pyridine-2-carbonitrile], for which the DC50 was found to be 6.3 µM.

As to `N#Cc1cc(OC2CCN(c3ccc4nnc(C(F)(F)F)n4n3)CC2)ccn1` [Example 449, 4-[[1-[3-(trifluoromethyl)[1,2,4]triazolo[4,3-b]pyridazin-6-yl]piperidin-4-yl]oxy]pyridine-2-carbonitrile], the DC50 turned out to be 4.8 µM. The same measure for `O=S(=O)(c1ccc(F)cc1)N1CC2CN(c3ccc4nnc(C(F)(F)F)n4n3)CC2C1` (stereo not drawn) [Example 453]: 5.7 µM; for `COc1cccc(S(=O)(=O)N2CC3CN(c4ccc5nnc(C(F)(F)F)n5n4)CC3C2)c1` (stereo not drawn) [Example 454]: 9.2 µM. Turning to `O=S(=O)(c1cccc(F)c1)N1CCCN(c2ccc3nnc(C(F)(F)F)n3n2)CC1` [Example 456], the DC50 was 21 µM. As for `O=S(=O)(c1ccccc1F)N1CCCN(c2ccc3nnc(C(F)(F)F)n3n2)CC1` [Example 460], the DC50 came out at 5.1 µM. For `COc1ccccc1OCC1CCN(c2ccc3nnc(C(F)(F)F)n3n2)CC1` [Example 462] the value was 7.7 µM; for `Fc1ccc(OCC2CCN(c3ccc4nnc(C(F)(F)F)n4n3)CC2)cc1` [Example 463], 0.98 µM. The same measure for `Fc1cccc(OCC2CCN(c3ccc4nnc(C(F)(F)F)n4n3)CC2)c1` [Example 464]: 1.4 µM; for `COc1cccc(OCC2CCN(c3ccc4nnc(C(F)(F)F)n4n3)CC2)c1` [Example 466]: > 19 µM.

Regarding `Fc1ccccc1OCC1CCN(c2ccc3nnc(C(F)(F)F)n3n2)CC1` [Example 467], the DC50 was found to be 4.9 µM. For `FC(F)(F)c1ccc(OCC2CCN(c3ccc4nnc(C(F)(F)F)n4n3)CC2)cc1` [Example 468] the value was > 11 µM; for `N#Cc1ccccc1OCC1CCN(c2ccc3nnc(C(F)(F)F)n3n2)CC1` [Example 469], 1.8 µM; for `FC(F)(F)c1nnc2ccc(N3CCC(COc4ccc(Cl)cc4)CC3)nn12` [Example 470], 4.6 µM. For `FC(F)(F)c1ccccc1OCC1CCN(c2ccc3nnc(C(F)(F)F)n3n2)CC1` [Example 471] the value was 2 µM. The same measure for `FC(F)(F)c1nnc2ccc(N3CCC(COc4cccc(Cl)c4)CC3)nn12` [Example 473]: 3.2 µM; for `N#Cc1ccc(OCC2CCN(c3ccc4nnc(C(F)(F)F)n4n3)CC2)cc1` [Example 474]: 0.96 µM; for `FC(F)(F)c1nnc2ccc(N3CCC(COc4ccccc4Cl)CC3)nn12` [Example 475]: > 15 µM.

`N#Cc1cccc(OCC2CCN(c3ccc4nnc(C(F)(F)F)n4n3)CC2)c1` [Example 476]: the DC50 came out at 3.5 µM. For the compound `FC(F)(F)c1nnc2ccc(N3CCN(Cc4c[nH]c5cnccc45)CC3)nn12` [Example 477], the DC50 stood at 6.3 µM.

`FC(F)(F)c1nnc2ccc(N3CCN(Cc4c[nH]c5ccncc45)CC3)nn12` [Example 480]: the DC50 was 9.6 µM. As for `FC(F)(F)c1nnc2ccc(N3CCC(COC4COC4)CC3)nn12` [Example 481], the DC50 was 6.6 µM.

For the compound `FC(F)(F)COCC1CCN(c2ccc3nnc(C(F)(F)F)n3n2)CC1` [Example 482], the DC50 is 1.8 µM.
